Data from patent US10774121B2, “Methods and compositions for treating neurodegenerative disorders and Alzheimer's Disease and improving normal memory” (The Regents of the University of California, priority 2006, dated 2020).

Assays:
[1] = system: tyrosine kinase activity; assay: Tyrosine kinase ELISA on extracts of β-APP-transfected DAMI cells mixed with PS-1-transfected DAMI cells; assay type: cell-based, human
Description: All experiments after those in FIG. 7 (with the exception of FIG. 9a, Panel 4) were carried out with appropriately transfected DAMI cells only. Equal numbers (0.5×10^6/ml) of β-APP-transfected DAMI cells and either PS-1- or PS-2-transfected DAMI cells were mixed gently at room temperature, exactly as described (Dewji and Singer, 1998). In control experiments, DAMI cells transfected with pcDNA3 alone were substituted for the β-APP transfected cells.
At several times between 0 and 20 min after mixing, an aliquot of each cell mixture was rapidly centrifuged, the culture medium was removed, and the cell pellet was suspended in 200 μl of extraction buffer (50 mM Tris, pH 8.0/150 mM NaCl/0.5% Nonidet-P40) containing protease inhibitors (1 mM 4-(2-aminoethyl) benzene sulfonyl fluoride hydrochloride (AEBSF)/1 μg/ml antipain/0.1 μg/ml pepstatin A/0.1 μg/ml leupeptin) and the phosphatase inhibitor sodium orthovanadate (0.1 mM). The mixture was sonicated with three bursts of 20 sec duration and then centrifuged. These extract supernatants were then used for Western blot and ELISA analyses as described below.
ELISAs Protein tyrosine kinase activity was measured by an Enzyme Linked Immunosorbent Assay (ELISA) using a tyrosine kinase assay kit (Upstate Biotechnology). […]

[2] = molecular target: Gαo (Mus musculus, UniProt P18872); assay: 35S-GTPγS incorporation (G-protein activation) in β-APP-only:PS-1-only co-cultures, immunoprecipitation with Gαo antibody K-20; assay type: cell-based; conditions: β-APP:PS-1 co-culture, Peptide 1-80 0-3 μM
Description: Two cell types were generated: ES-derived mouse cells (PS-1^−/−; PS-2^−/−) that expressed only small amounts of endogenous β-APP but no PS, were transiently transfected with cDNA for human β-APP to produce cells expressing excess human β-APP over mouse β-APP, and no PS-1 or PS-2 (β-APP-only cells). Embryonic (E18) mouse primary fibroblasts derived from β-APP-null mice, expressing only small amounts of endogenous PS-1 and PS-2, were transfected with cDNAs for human PS-1 to produce cells expressing excess human over mouse PS-1 but no β-APP (PS-1-only cells). […]
Co-cultures of β-APP-only and PS-1-only cells were carried out in the presence and absence of Peptide 1-80 (0-3 μM). ^35S-GTPγS assays were carried out on extracts as a measure of G-protein activation. The Aβ produced in these co-culture extracts was determined by ELISA. […]
^35S-GTPγS Assays: Extract (100 μg of total protein) was mixed with an equal volume of GTPγS Buffer B (50 mM HEPES/NaOH pH 7.4, 40 μM GDP, 50 mM MgCl2, 100 mM NaCl) and reacted with 50 nM ^35S-GTPγS (1250 Ci/mmol, Perkin Elmer, Waltham, Mass.) for 60 min at RT. […] The agarose beads were suspended in scintillation fluid (CytoScint, ICN) (5 ml) and counted in a Beckman Coulter LS 6000 SC scintillation counter for 3 min.

[3] = system: Aβ production; assay: ELISA of Aβ produced in β-APP-only:PS-1-only co-culture extracts; assay type: cell-based, mouse; conditions: β-APP:PS-1 co-culture, Peptide 1-80 0-3 μM
Description: Co-cultures of β-APP-only and PS-1-only cells were carried out in the presence and absence of Peptide 1-80 (0-3 μM). ^35S-GTPγS assays were carried out on extracts as a measure of G-protein activation. The Aβ produced in these co-culture extracts was determined by ELISA.
ES-derived mouse cells (PS-1^−/−; PS-2^−/−) that expressed only small amounts of endogenous β-APP but no PS, were transiently transfected with cDNA for human β-APP to produce cells expressing excess human β-APP over mouse β-APP, and no PS-1 or PS-2 (β-APP-only cells). Embryonic (E18) mouse primary fibroblasts derived from β-APP-null mice, expressing only small amounts of endogenous PS-1 and PS-2, were transfected with cDNAs for human PS-1 to produce cells expressing excess human over mouse PS-1 but no β-APP (PS-1-only cells). The minigenes were co-transfected with PS-1 in the PS-only APP−/− fibroblasts to inhibit the endogenous mouse Gα under investigation in those cells. PS−/− ES cells were separately transfected with human β-APP cDNA (β-APP only cells) and the two types of cells were co-cultured for 24 hours. Cells were harvested and detergent-buffer extracts of the co-cultures were prepared. Determination of [^35S]GTPγS incorporation in these cultures was carried out in the presence and absence of each minigene: Aliquots each containing 100 μg total protein were reacted with ^35S-GTPγS and immunoprecipitation of each ^35S-GTPγS-treated extract was carried out with antibodies directed to the particular Gα under investigation. Specificity of binding of a particular Gα to PS-1 was established by blocking of GTPγS incorporation in the presence of the specific minigene inhibitor.
Co-culture of β-APP-only with PS-1-only cells was carried out as described above.
ELISA for the production of Aβ1-40 was carried out using sandwich ELISA kits (Biosource).

Chain of Gαo (P18872 whole entry): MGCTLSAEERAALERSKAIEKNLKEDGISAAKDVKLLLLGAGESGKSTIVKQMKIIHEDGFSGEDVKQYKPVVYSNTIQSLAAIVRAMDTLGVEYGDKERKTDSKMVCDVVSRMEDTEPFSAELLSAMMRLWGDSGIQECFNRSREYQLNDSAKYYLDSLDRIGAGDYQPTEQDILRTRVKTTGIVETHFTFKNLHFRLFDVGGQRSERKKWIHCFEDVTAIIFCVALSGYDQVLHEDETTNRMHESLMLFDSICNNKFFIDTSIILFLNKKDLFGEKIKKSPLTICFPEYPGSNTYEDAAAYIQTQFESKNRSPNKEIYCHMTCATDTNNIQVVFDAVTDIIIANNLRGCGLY

With `CC(C)(C)n1nc(-c2ccc(Cl)cc2)c2c(N)ncnc21` [PP2] the “tyrosine kinase activity after mixing” value ([1]; 10 nM PP2) was “inhibition”.
With “Peptide 1-80: fusion construct of the water-soluble entire 80 amino acid NH2-terminal domain of PS-1” the “G-protein (Gαo) activation, 35S-GTPγS assay” value [2] was “inhibited by Peptide 1-80 in a dose-dependent manner” and the “Aβ production by ELISA” value [3] was “inhibited by Peptide 1-80 in a dose-dependent manner”.
With `CO[C@H]1[C@@H](OC)C[C@H](C)[C@@H](OC)C2=CC(=O)C=C(NC(=O)/C(C)=C/C=C\[C@H](OC)[C@@H](OC(N)=O)/C(C)=C/[C@@H]1C)C2=O` [herbimycin A] the “increase in tyrosine kinase activity at 8-10 mins after mixing” value ([1]; 10 μg/ml herbimycin A) was “completely inhibited”.
